# “Also recorded” adds a separate entry of the source.
# What was measured:
# [1] = DPPH free radical scavenging assay; format: biochemical; conditions: absorbance at 517 nm
# Protocol: The free radical scavenging activity was measured by following microplate procedures as previously described. One hundred microliters of the sample dilutions with five concentration levels (varying from 0 to 2000 μM in DMSO) was added to two identical groups of wells in a 96-well microplate. The same volume of 0.1 mM DPPH-methanol solution was added to each well of one group (samples), and methanol ([…]) was added to the other group (blanks). The control was prepared by mixing the DPPH-methanol solution with the sample solvent or butylated hydroxytoluene (BHT). The solutions were mixed thoroughly, covered, and allowed to react in the dark at room temperature for 40 min. The absorbance was measured at 517 nm using a microplate reader (Quant, BioTek Instruments Inc.), and the scavenging activity was calculated from the absorbance values according to the following equation: […]. The antioxidant properties of the samples were expressed as half the maximal effective concentrations (EC50) obtained by interpolation from the linear regression analysis. BHT was used as the positive control.
# [2] = test system: Salmonella enterica serovar typhimurium TA104; experiment: Antimutagenicity assay (Salmonella/microsome), strain TA104; format: cell-based; conditions: TA104, cotreatment
# Excerpt: (§1) Salmonella enterica serovar typhimurium (S. typhimurium) strains TA100, TA1535, TA104, and TA102 from the authors' laboratory stock were used as described by Maron and Ames in the antimutagenicity assay.
# (§2) We carried out the coexposure protocol of the antimutagenicity assay to investigate the potential of the compound to protect against alkylation-mediated genetic mutation in S. typhimurium TA100, TA102, TA104, and TA1535 strains according to Ajith and Soja. The test proceeded both in the absence and presence of a metabolic activation system (4% S9 mix, Aroclor preinduced, from MOLTOX Inc., USA). DMSO 1% served as the negative control. […] The mixtures were incubated in a shaker at 37°C (preincubation) under light protection. After a total of 60 min of cotreatment, the mixtures were added to and mixed with 2 mL top agar containing 0.05 mmol/L L-histidine and D-biotin for the S. typhimurium strains. Each of these was then spread on a minimal glucose agar (1.5% agar, Vogel-Bonner medium E, containing 2% glucose) plate. After the top agar solidified, the plates were incubated at 37°C for 60–72 h. Each tester strain was assayed in triplicate and repeated at least twice, and the number of revertant colonies was counted for each tester strain and treatment group. The counts of revertant colonies were obtained to build a dose-response curve and calculate the percentage of reduction.
# [3] = test system: Salmonella enterica serovar typhimurium TA1535; experiment: Antimutagenicity assay (Salmonella/microsome), strain TA1535; format: cell-based; conditions: TA1535, cotreatment
# Excerpt: as §1, §2
# [4] = test system: HepG2 cells; experiment: Flow cytometry cell cycle analysis; format: cell-based, Human; conditions: 24 h
# Protocol: The cells (1 × 10^5) were washed in PBS solution and centrifuged at 400 ×g for 5 min, and after, the cells were suspended in DNA staining solution (0.3% Triton X-100 and 50 μg/mL propidium iodide (PI) in a 43 mM citrate buffer), as previously described. After 45 minutes of treatment with 50 μg/mL ribonuclease A (Sigma, EUA), the PI fluorescence was determined (10,000 events per sample) in a Gallios flow cytometer (Beckman Coulter, USA). Data were analyzed by the Summit v4.3 software. The experiments were done at least three times, and statistical analysis was performed by one-way ANOVA followed by a Tukey's post hoc test.
# [5] = test system: HepG2 cells; experiment: Cytoprotective assay of HepG2 cells (WST-1, coexposure with alkylating agent at LC50); format: cell-based, Human; conditions: 24 h coexposure with 20 μM MMS, AVA at 1.0 and 10.0 μM
# Protocol: After 24 h of coexposure, the culture medium was replaced by a 90 μL fresh culture medium and 10 μL WST-1 and incubated at 37°C and 5% CO2 for 2 h. The absorbance was then measured following the protocol as described before. The survival rates were determined in comparison to the negative control.
# [6] = test system: S. enterica serovar typhimurium-tested strains; experiment: Cytotoxic effect in bacterial strains (CFU survival); format: cell-based, Salmonella enterica serovar typhimurium; conditions: presence and absence of exogenous metabolic activation (data not shown)
# Protocol: To determine the cytotoxic effect, after 60 min incubation, the assay mixtures were diluted in 0.9% NaCl (w/v) to obtain a suspension containing 2 × 10^2 cells/mL. A suitable aliquot (100 μL) of this suspension was plated on nutrient agar (0.8% bacto nutrient broth (Difco), 0.5% NaCl, and 1.5% agar). The plates were then incubated at 37°C for 24 h, and the colony-forming units (CFU) were counted to obtain the percentage of survival. All the experiments were done in triplicate and were repeated at least twice.
# [7] = +S9, CPA (150 μM), atorvastatin 20 μM
# [8] = +S9, CPA (150 μM), atorvastatin 100 μM
# [9] = +S9, CPA (150 μM), atorvastatin 200 μM
# [10] = +S9, CPA (150 μM), atorvastatin 200 μM, listed as Atorvastatin
# [11] = +S9, CPA (150 μM), atorvastatin 1000 μM
# [12] = +S9, CPA (150 μM), atorvastatin 1000 μM, listed as Atorvastatin
# [13] = −S9, MMS (100 μM), atorvastatin 20 μM
# [14] = −S9, MMS (100 μM), atorvastatin 100 μM
# [15] = −S9, MMS (100 μM), atorvastatin 200 μM
# [16] = −S9, MMS (100 μM), atorvastatin 1000 μM
smiles,measurement,setting,value
"CC(C)c1c(C(=O)Nc2ccccc2)c(-c2ccccc2)c(-c2ccc(F)cc2)n1CC[C@@H](O)C[C@@H](O)CC(=O)O [AVA, atorvastatin]",EC50,[1],274 ± 3 µM
same,% reduction,[2]; [7],19.29%
same,His+ (revertant colonies),[2]; [7],969 ± 54
same,% reduction,[2]; [8],25%
same,His+ (revertant colonies),[2]; [8],933 ± 38
same,% reduction,"[2]; +S9, CPA (150 μM), atorvastatin 100 μM, listed as Atorvastatin",25.00^∗ %
same,% reduction,[2]; [9],29%
same,His+ (revertant colonies),[2]; [9],905 ± 42
same,% reduction,[2]; [10],29.29^∗ %
same,% reduction,[2]; [11],41%
same,His+ (revertant colonies),[2]; [11],829 ± 11
same,% reduction,[2]; [12],41.43^∗ %
same,% reduction,[2]; [13],19.36%
same,His+ (revertant colonies),[2]; [13],801 ± 32
same,% reduction,[2]; [14],24.19%
same,His+ (revertant colonies),[2]; [14],776 ± 64
same,% reduction,[2]; [15],32.3%
same,His+ (revertant colonies),[2]; [15],736 ± 91
same,% reduction,"[2]; −S9, MMS (100 μM), atorvastatin 200 μM, listed as Atorvastatin",32.26^∗ %
same,% reduction,[2]; [16],55.7%
same,His+ (revertant colonies),[2]; [16],620 ± 28
same,% reduction,"[2]; −S9, MMS (100 μM), atorvastatin 1000 μM, listed as Atorvastatin",55.65^∗ %
same,% reduction,[3]; [7],9.44%
same,His+ (revertant colonies),[3]; [7],53 ± 3
same,% reduction,[3]; [8],11.11%
same,His+ (revertant colonies),[3]; [8],52 ± 7
same,% reduction,[3]; [9],30.6%
same,His+ (revertant colonies),[3]; [9],45 ± 4
same,% reduction,[3]; [10],30.56^∗ %
same,% reduction,[3]; [11],42.2%
same,His+ (revertant colonies),[3]; [11],41 ± 8
same,% reduction,[3]; [12],42.22^∗ %
same,% reduction,[3]; [13],45.65^∗ %
same,His+ (revertant colonies),[3]; [13],50 ± 4
same,% reduction,[3]; [14],67.39^∗ %
same,His+ (revertant colonies),[3]; [14],40 ± 5
same,% reduction,[3]; [15],86.95^∗ %
same,His+ (revertant colonies),[3]; [15],31 ± 2
same,% reduction,[3]; [16],91.30^∗ %
same,His+ (revertant colonies),[3]; [16],29 ± 3
same,Cell cycle pattern,"[4]; 25 μM AVA alone, in comparison to the control",did not induce alterations
same,"Effect on G1, S and G2 phases",[4]; AVA and CPA cotreatment,did not affect
same,Effect on G1 and S phases,[4]; AVA and MMS cotreatment,did not affect
same,Number of cells in the G2 phase,[4]; AVA and MMS cotreatment,restored
same,sub-G1 percentage of cells,[4]; cotreatment 20 μM MMS + AVA 1 μM,12%
same,sub-G1 percentage of cells,[4]; cotreatment 20 μM MMS + AVA 10 μM,4%
same,sub-G1 percentage of cells,[4]; cotreatment 20 μM MMS + AVA 25 μM,2%
same,polyploid subpopulation,[4]; cotreatment AVA + 20 μM MMS,3-4%
same,sub-G1 percentage of cells,"[4]; cotreatment AVA + CPA, no dose dependence",3-4%
same,Cell cycle pattern,[4]; cotreatment with 25 μM AVA in MMS-exposed (20 μM) cells,restored the cell cycle pattern
same,Cytoprotective effect (survival of HepG2 coexposed to MMS),[5],significant protection; also recorded: significant cytoprotective effect
same,Cytotoxic effect to bacterial strains,[6],no cytotoxic effect

# From paper PMC5903342 (Oxidative Medicine and Cellular Longevity, 2018)
